# ChEMBL document CHEMBL1156458, “chi-Conotoxin and tricyclic antidepressant interactions at the norepinephrine transporter define a new transporter model” (J Biol Chem, 2007)
# Biological target: Sodium-dependent dopamine transporter (Homo sapiens, UniProt Q01959, F472L)
# Assay: Inhibition of [3H]dopamine uptake at human DAT F472L mutant expressed in african green monkey COS1 cells after 48 hrs
# Type: cell-based, COS-1
# Sodium-dependent dopamine transporter, sequence (Q01959 whole entry F472L): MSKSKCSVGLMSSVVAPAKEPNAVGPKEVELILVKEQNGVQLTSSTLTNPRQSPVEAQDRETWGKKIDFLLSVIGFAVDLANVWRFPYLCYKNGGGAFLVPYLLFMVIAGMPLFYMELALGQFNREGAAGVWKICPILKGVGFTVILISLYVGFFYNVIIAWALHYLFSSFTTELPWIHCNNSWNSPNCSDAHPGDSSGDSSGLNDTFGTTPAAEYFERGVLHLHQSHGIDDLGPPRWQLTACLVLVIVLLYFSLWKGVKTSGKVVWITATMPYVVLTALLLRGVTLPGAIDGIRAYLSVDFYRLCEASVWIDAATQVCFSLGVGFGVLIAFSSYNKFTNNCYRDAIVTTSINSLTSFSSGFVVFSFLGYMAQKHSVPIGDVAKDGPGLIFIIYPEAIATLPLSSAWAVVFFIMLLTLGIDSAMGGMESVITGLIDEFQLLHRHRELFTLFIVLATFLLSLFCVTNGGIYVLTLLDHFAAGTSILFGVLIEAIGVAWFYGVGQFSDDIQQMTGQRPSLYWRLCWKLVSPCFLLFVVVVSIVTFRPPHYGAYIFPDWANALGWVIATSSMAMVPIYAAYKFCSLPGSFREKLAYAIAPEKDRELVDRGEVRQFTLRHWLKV
smiles,measurement,value
CC(C)C[C@@H]1NC(=O)[C@H](CCCCN)NC(=O)[C@H](Cc2ccc(O)cc2)NC(=O)CNC(=O)[C@@H]2CSSC[C@H](NC1=O)C(=O)N[C@@H](Cc1cnc[nH]1)C(=O)N1C[C@H](O)C[C@H]1C(=O)N[C@H](C(=O)O)CSSC[C@H](NC(=O)[C@@H](NC(=O)CNC(=O)[C@@H](N)CC(N)=O)C(C)C)C(=O)N2,IC50,200 µM
